Reference: patent US10420744B2, “Composition of chlorogenic acid and methods of making and using the same in treating serum lipid levels” (Vidya Herbs, Inc., priority 2014, dated 2019)
Marks after values point to notes of the source that are not given here.

Test system: high fat diet fed rats
Experiment: Anti-obesity activity, high fat diet in rats
Assay type: in vivo, Wistar rats
Conditions: Group III: high fat diet + orlistat 30 mg/kg
Procedure: Objective: The objective was to investigate the effect of the CGA-7 complex against high fat diet fed rats. Model: High fat diet in rats […] Male Wistar rats were divided into six groups with six animals in each group. [table] Body weight was measured once every 2 days. Food intake was measured daily for 42 days. On day 43, all the animals were kept overnight fasting before sacrifice. Blood was collected by puncturing the retro orbital plexus. Serum was separated by centrifugation at 3000 rpm for 10 minutes. Serum was estimated for glucose, cholesterol, triglycerides and HDL. LDL and atherogenic index were also calculated. Liver, mesenteric, brown adipose tissue (BAT), left and right perirenal fat pads, left and right epididymal pads were isolated and weighed. Liver was isolated and estimated for liver triglycerides and cholesterol levels.

CCCCCCCCCCC[C@@H](C[C@@H]1OC(=O)[C@H]1CCCCCC)OC(=O)[C@H](CC(C)C)NC=O [orlistat, Orlistat]
liver cholesterol: 49.66 ± 3.28***^b
liver triglycerides: 64.64 ± 3.44***^b
Average food intake (42 days): 8.54 ± 0.40^nsb g/rat
BAT (42 days): 0.19 ± 0.01**^b
Difference in body weight (42 days): 88.01 ± 3.68***^b
Epididymal fat pad Left (42 days): 0.50 ± 0.01**^b
Epididymal fat pad Right (42 days): 0.48 ± 0.01*^b
Liver organ weight (42 days): 3.47 ± 0.11***^b
Mesenteric fat (42 days): 0.98 ± 0.03*^b
Peri renal fat pad tissue Left (42 days): 0.61 ± 0.05*^b
Peri renal fat pad tissue Right (42 days): 0.65 ± 0.04*^b
Initial weight (baseline, in g (unit assumed)): 130.3 ± 0.56
Atherogenic Index (calculated): 2.20 ± 0.20***^b
serum Glucose (day 43): 109.7 ± 3.93**^b mg/dL
serum HDL-c (day 43): 20.47 ± 1.08*^b mg/dL
serum Total cholesterol (day 43): 63.38 ± 0.95***^b mg/dL
serum Triglyceride (day 43): 77.63 ± 4.27***^b mg/dL
serum LDL-c (day 43, calculated): 27.39 ± 1.07^nsb mg/dL
Final weight (male Wistar rats, 42 days, in g (unit assumed)): 218.4 ± 2.65
